From patent US11046651B2, “Piperazine substituted azapine derivatives and uses thereof” (Alairion, Inc., priority 2019, dated 2021)

Legend:
D2 = D2 (Homo sapiens (Human), UniProt P14416); experiment: D2 binding assay ([3H] 7-OH-DPAT, HEK293 D2L membranes); details: numeric values
Method: D2 Binding Assay Protocol
The testing compounds were diluted with DMSO, starting at 2 mM, with 8-points and 5-fold serial dilutions. droperidol was diluted with DMSO, starting at 0.2 mM, with 8-points and 4-fold serial dilutions.
1 μL of a compound of the present disclosure and the reference compound (Table O) was transferred to an assay plate. 1 μL of droperidol was transferred to an assay plate according to the plate map for nonspecific binding (Low control: LC). 1 μL of DMSO was transferred to an assay plate according to the plate map for total binding (High control: HC). Following a plate map, 100 μL of the membrane stock solutions and radio ligand were added into the plate. The plates were sealed and shaken with 300 rpm.
(§1) Unifilter-96 GF/C filter plates were soaked with 50 μL of 0.3% PEI per well for about 0.5 hours at room temperature. When the binding assays were complete, the reaction mixture was filtered through the GF/B filter plates using Perkin Elmer Filtermate Harvester, and each plate was washed 4 times with cold wash buffer. The filter plates were dried for 1 hour at 50° C. After drying, the bottom of the filter plate wells were sealed using Perkin Elmer Unifilter-96 backing seal tape. 50 μL of Perkin Elmer Microscint 20 cocktail was added. The top of the filter plates were sealed with Perkin Elmer TopSeal-A sealing film.
^3H trapped on filters were counted using Perkin Elmer MicroBeta2 Reader. Inhibition constants were calculated using the following equation: […]
The data was analyzed using Prism 5. The model used was “log(inhibitor) vs. response—Variable slope” to fit the data and calculate IC50. The IC50 was then converted to Ki using the following equation: Ki=IC50/(1+L/Kd), wherein L is the radioligand concentration in the reaction system; Kd is the affinity of radioligand to the receptor. As shown in Table Q Compound No. 7 has a lower affinity for D2 when compared to Compounds A-2, A-3, A-4, and A-5.

5-HT2C = 5-HT2C (Homo sapiens (Human), UniProt P28335); experiment: 5-HT2C binding assay ([3H]-Mesulergine, HEK293 membranes); details: numeric values
Sequence of 5-HT2C (P28335 33-458): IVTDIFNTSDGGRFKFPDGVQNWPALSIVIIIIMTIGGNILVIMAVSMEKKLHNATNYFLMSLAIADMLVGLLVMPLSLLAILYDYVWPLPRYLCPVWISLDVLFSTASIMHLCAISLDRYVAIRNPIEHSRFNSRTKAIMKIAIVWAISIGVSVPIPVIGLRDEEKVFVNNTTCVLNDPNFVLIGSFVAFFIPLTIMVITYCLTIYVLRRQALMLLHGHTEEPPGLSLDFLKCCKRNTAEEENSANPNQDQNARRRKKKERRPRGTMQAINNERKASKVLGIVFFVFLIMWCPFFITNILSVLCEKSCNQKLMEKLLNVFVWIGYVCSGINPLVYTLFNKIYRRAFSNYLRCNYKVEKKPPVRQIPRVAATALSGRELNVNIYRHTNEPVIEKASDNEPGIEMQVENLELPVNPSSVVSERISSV
Method: 5-HT2C Binding Assay Protocol
The testing compounds were diluted with DMSO, starting at 2 mM, with 8-points and 5-fold serial dilutions.
1 μL of a compound of the present disclosure the reference compound (Table J) was transferred to an assay plate. […] 1 μL of DMSO was transferred to an assay plate according to the plate map for total binding (High control: HC).
as §1, with “GF/C” for “GF/B”
^3H trapped on filters were counted using Perkin Elmer MicroBeta2 Reader. Inhibition constants were calculated using the following equation:
[formula] The data was analyzed using Prism 5. The model used was “log(inhibitor) vs. response—Variable slope” to fit the data and calculate IC50. The IC50 was then converted to Ki using the following equation: Ki=IC50/(1+L/Kd), wherein L is the radioligand concentration in the reaction system; Kd is the affinity of radioligand to the receptor.

Sequence of D2 (P14416 whole entry): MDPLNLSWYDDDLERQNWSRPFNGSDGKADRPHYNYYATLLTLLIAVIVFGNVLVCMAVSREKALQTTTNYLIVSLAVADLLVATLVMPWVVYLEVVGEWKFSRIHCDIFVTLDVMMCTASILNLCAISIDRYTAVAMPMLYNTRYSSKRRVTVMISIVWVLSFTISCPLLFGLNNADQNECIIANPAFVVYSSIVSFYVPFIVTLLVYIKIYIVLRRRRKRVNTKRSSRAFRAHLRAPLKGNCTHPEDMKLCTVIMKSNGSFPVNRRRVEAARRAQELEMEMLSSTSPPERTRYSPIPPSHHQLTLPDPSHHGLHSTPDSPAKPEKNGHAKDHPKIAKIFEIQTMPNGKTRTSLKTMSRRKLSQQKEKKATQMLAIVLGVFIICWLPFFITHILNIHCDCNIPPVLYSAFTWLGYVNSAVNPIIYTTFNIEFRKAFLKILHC

CC(C)(CN1CCN(C2=Nc3ccccc3Oc3ccccc32)CC1)C(=O)O [A-5, 3-(4-(dibenzo[b,f][1,4]oxazepin-11-yl)piperazin-1-yl)-2,2-dimethylpropanoic acid, reference compound]
Ki (D2): 2870 nM | Ki (5-HT2C): 680 nM
